In patent US8507509B2, “Saturated and insaturated bi- or tricyclic aryloxyacetamine derivatives and their use as fungicides” (Syngenta Crop Protection LLC, priority 2007, dated 2013):

How the values were obtained:
[1] = tested on: Erysiphe graminis f.sp. tritici; test: Erysiphe graminis f.sp. tritici (wheat powdery mildew), wheat leaf segment assay, preventive; type: in vivo; conditions: Blumeria graminis, foliar, 96 h; 200 ppm; wheat leaf segments; assessed four days after inoculation; read-out: control of fungal infection, Etysiphe graminis f.sp. tritici
Plasmopara viticola = Plasmopara viticola (downy mildew of grapevine), grapevine leaf disk assay, preventive; type: in vivo; conditions: foliar, 168 h, 200 ppm, grapevine leaf disks, assessed seven days after inoculation, read-out: control of fungal infection, Plasmopara viticola
Phytophthora infestans = test: whole plant or invertebrate; type: in vivo; conditions: in Solanum lycopersicum, foliar, 96 h, read-out: control of fungal infection, Phytophthora infestans
Septoria nodorum = Septoria nodorum (wheat glume blotch), wheat leaf segment assay, preventive; type: in vivo; conditions: Parastagonospora nodorum, foliar, 96 h; 200 ppm; wheat leaf segments; assessed four days after inoculation; read-out: control of fungal infection, Septoria nodorum
Fusarium culmorum = Fusarium culmorum (root rot), liquid culture growth inhibition in nutrient broth; type: cell-based; conditions: PDB broth, 24 C, inhibition of growth determined photometrically after 48 hrs, read-out: control of fungal infection, Fusarium culmorum
Description: Mycelia fragments or conidia suspensions of a fungus, prepared either freshly from liquid cultures of the fungus or from cryogenic storage, are directly mixed into nutrient broth. DMSO solutions of the test compound (max. 10 mg/ml) is diluted with 0.025% Tween20 by factor 50 and 10 μl of this solution is pipetted into a microtiter plate (96-well format) and the nutrient broth containing the fungal spores/mycelia fragments is then added to give an end concentration of the tested compound. The test plates are incubated at 24° C. and 96% rH in the dark. The inhibition of fungal growth is determined photometrically after 2-6 days and antifungal activity is calculated.
Fusarium culmorum (root rot): Conidia of the fungus from cryogenic storage were directly mixed into nutrient broth (PDB potato dextrose broth). After placing a (DMSO) solution of the test compounds into a microtiter plate (96-well format) the nutrient broth containing the fungal spores was added. The test plates were incubated at 24 C and the inhibition of growth was determined photometrically after 48 hrs.

Pythium ultimum = Pythium ultimum (Damping off), liquid culture growth inhibition in potato dextrose broth; type: cell-based; conditions: Globisporangium ultimum; 20 ppm; potato dextrose broth, 24° C.; inhibition of growth determined photometrically after 48 hours; read-out: control of fungal infection, Pythium ultimum
Septoria tritici = Septoria tritici (leaf blotch), liquid culture growth inhibition in nutrient broth; type: cell-based; conditions: Zymoseptoria tritici; 200 ppm; PDB broth, 24 C; inhibition of growth determined photometrically after 72 hrs; read-out: control of fungal infection, Septoria tritici
Botrytis cinerea = Botrytis cinerea (grey mould), bean leaf disk assay, preventive; type: in vivo; conditions: foliar, 96 h, 200 ppm, bean leaf disks, assessed four days after inoculation, read-out: control of fungal infection, Botrytis cinerea

C#Cc1cnc2c(C)cc(OC(SC)C(=O)NC(C)(C)C=NOCC=C)cc2c1 (stereo not drawn) [Compound No. 114, N-(2-Allyloxyimino-1,1-dimethyl-ethyl)-2-(3-Ethynyl-8-methyl-quinolin-6-yloxy)-2-methylsulfanyl-acetamide]
≥ 60%: pest or weed control at 200 ppm [1] | pest or weed control at 200 ppm (Plasmopara viticola) | pest or weed control at 200 ppm (Phytophthora infestans) | pest or weed control at 200 ppm (Septoria nodorum) | inhibition of growth at 200 ppm (Fusarium culmorum)

C#Cc1cnc2c(C)cc(OC(CC)C(=O)NC(C)(C)C=NOC)cc2c1 (stereo not drawn) [Compound No. 132, 2-(3-Ethynyl-8-methyl-quinolin-6-yloxy)-N-(2-methoxyimino-1,1-dimethyl-ethyl)-butyramide]
≥ 60%: pest or weed control at 200 ppm [1] | pest or weed control at 200 ppm (Plasmopara viticola) | inhibition of growth at 20 ppm (Pythium ultimum) | pest or weed control at 200 ppm (Phytophthora infestans) | inhibition of growth at 200 ppm (Septoria tritici) | pest or weed control at 200 ppm (Septoria nodorum)

C=CCON=CC(C)(C)NC(=O)C(Oc1ccc2ncc(I)cc2c1)SC (stereo not drawn) [Compound No. 52, N-(2-Allyloxyimino-1,1-dimethyl-ethyl)-2-(3-iodo-quinolin-6-yloxy)-2-methylsulfanyl-acetamide]
≥ 60%: pest or weed control at 200 ppm (Plasmopara viticola) | inhibition of growth at 20 ppm (Pythium ultimum) | pest or weed control at 200 ppm (Phytophthora infestans) | inhibition of growth at 200 ppm (Fusarium culmorum)

C#Cc1cnc2c(C)cc(OC(SC)C(=O)NC(C)(C)C=NOC)cc2c1 (stereo not drawn) [Compound No. 112, 2-(3-Ethynyl-8-methyl-quinolin-6-yloxy)-N-(2-methoxyimino-1,1-dimethyl-ethyl)-2-methylsulfanyl-acetamide]
≥ 60%: pest or weed control at 200 ppm (Plasmopara viticola) | inhibition of growth at 20 ppm (Pythium ultimum) | pest or weed control at 200 ppm (Phytophthora infestans) | pest or weed control at 200 ppm (Septoria nodorum) | inhibition of growth at 200 ppm (Fusarium culmorum)

CSC(Oc1ccc2ncc(I)cc2c1)C(=O)NC(C)(C)C=NO (stereo not drawn) [Compound No. 153, N-(2-Hydroxyimino-1,1-dimethyl-ethyl)-2-(3-iodo-quinolin-6-yloxy)-2-methylsulfanyl-acetamide]
≥ 60%: pest or weed control at 200 ppm [1] | pest or weed control at 200 ppm (Plasmopara viticola) | inhibition of growth at 20 ppm (Pythium ultimum) | pest or weed control at 200 ppm (Phytophthora infestans) | inhibition of growth at 200 ppm (Septoria tritici) | inhibition of growth at 200 ppm (Fusarium culmorum)

CCCCON=CCC(C)(C)NC(=O)C(Oc1cc(C)c2ncc(I)cc2c1)SC (stereo not drawn) [Compound No. 39, N-(3-Butoxyimino-1,1-dimethyl-propyl)-2-(3-iodo-8-methyl-quinolin-6-yloxy)-2-methylsulfanylacetamide]
≥ 60%: inhibition of growth at 200 ppm (Septoria tritici) | pest or weed control at 200 ppm (Botrytis cinerea)

C#CCON=CC(C)(C)NC(=O)C(Oc1ccc2ncc(Br)cc2c1)SC (stereo not drawn) [Compound No. 17, 2-(3-Bromo-quinolin-6-yloxy)-N-(1,1-dimethyl-2-prop-2-ynyloxyimino-ethyl)-2-methylsulfanyl-acetamide]
≥ 60%: pest or weed control at 200 ppm [1] | pest or weed control at 200 ppm (Plasmopara viticola) | inhibition of growth at 20 ppm (Pythium ultimum) | pest or weed control at 200 ppm (Phytophthora infestans) | inhibition of growth at 200 ppm (Septoria tritici) | pest or weed control at 200 ppm (Septoria nodorum)

CON=C(c1ccccc1)C(C)(C)NC(=O)C(Oc1ccc2ncc(Br)cc2c1)SC (stereo not drawn) [Compound No. 130, 2-(3-Bromo-quinolin-6-yloxy)-N-{2-[(E or Z)-methoxyimino]-1,1-dimethyl-2-phenyl-ethyl}-2-methylsulfanyl-acetamide]
≥ 60%: pest or weed control at 200 ppm [1] | pest or weed control at 200 ppm (Plasmopara viticola) | inhibition of growth at 20 ppm (Pythium ultimum) | pest or weed control at 200 ppm (Phytophthora infestans) | inhibition of growth at 200 ppm (Septoria tritici) | pest or weed control at 200 ppm (Septoria nodorum)

COCC(C)(C=NOC)NC(=O)C(Oc1cc(C)c2ncc(Br)cc2c1)SC (stereo not drawn) [Compound No. 63, 2-(3-Bromo-8-methyl-quinolin-6-yloxy)-N-(2-methoxyimino-1-methoxymethyl-1-methyl-ethyl)-2-methylsulfanyl-acetamide]
≥ 60%: pest or weed control at 200 ppm [1] | pest or weed control at 200 ppm (Plasmopara viticola) | pest or weed control at 200 ppm (Phytophthora infestans) | inhibition of growth at 200 ppm (Septoria tritici) | pest or weed control at 200 ppm (Septoria nodorum)

C#CCON=CC(C)(C)NC(=O)C(Oc1cc(C)c2ncc(Br)cc2c1)SC (stereo not drawn) [Compound No. 29, 2-(3-Bromo-8-methyl-quinolin-6-yloxy)-N-(1,1-dimethyl-2-prop-2-ynyloxyimino-ethyl)-2-methylsulfanyl-acetamide]
≥ 60%: pest or weed control at 200 ppm [1] | pest or weed control at 200 ppm (Plasmopara viticola) | inhibition of growth at 20 ppm (Pythium ultimum) | pest or weed control at 200 ppm (Phytophthora infestans) | pest or weed control at 200 ppm (Septoria nodorum) | inhibition of growth at 200 ppm (Fusarium culmorum)

C#Cc1cnc2ccc(OC(CC)C(=O)NC(C)(C)C=NOC)cc2c1 (stereo not drawn) [Compound No. 131, 2-(3-Ethynyl-quinolin-6-yloxy)-N-(2-methoxyimino-1,1-dimethyl-ethyl)-butyramide]
≥ 60%: pest or weed control at 200 ppm [1] | pest or weed control at 200 ppm (Plasmopara viticola) | inhibition of growth at 20 ppm (Pythium ultimum) | pest or weed control at 200 ppm (Phytophthora infestans) | inhibition of growth at 200 ppm (Septoria tritici) | pest or weed control at 200 ppm (Septoria nodorum)

CON=CC(C)(C)NC(=O)C(Oc1cc(C)c2ncc(Br)cc2c1)SC (stereo not drawn) [Compound No. 26, 2-(3-Bromo-8-methyl-quinolin-6-yloxy)-N-(2-methoxyimino-1,1-dimethyl-ethyl)-2-methylsulfanyl-acetamide]
≥ 60%: pest or weed control at 200 ppm [1] | pest or weed control at 200 ppm (Phytophthora infestans) | inhibition of growth at 200 ppm (Septoria tritici) | pest or weed control at 200 ppm (Septoria nodorum) | inhibition of growth at 200 ppm (Fusarium culmorum)

C#Cc1cnc2c(C)cc(OC(SC)C(=O)NC(C)(C)C=NOCC)cc2c1 (stereo not drawn) [Compound No. 113, N-(2-Ethoxyimino-1,1-dimethyl-ethyl)-2-(3-Ethynyl-8-methyl-quinolin-6-yloxy)-2-methylsulfanyl-acetamide]
≥ 60%: pest or weed control at 200 ppm (Plasmopara viticola) | inhibition of growth at 20 ppm (Pythium ultimum) | pest or weed control at 200 ppm (Phytophthora infestans) | pest or weed control at 200 ppm (Septoria nodorum) | inhibition of growth at 200 ppm (Fusarium culmorum)

CON=CCC(C)NC(=O)C(Oc1cc(C)c2ncc(I)cc2c1)SC (stereo not drawn) [Compound No. 105, 2-(3-Iodo-8-methyl-quinolin-6-yloxy)-N-(3-methoxyimino-1-methyl-propyl)-2-methylsulfanyl-acetamide]
≥ 60%: pest or weed control at 200 ppm [1] | inhibition of growth at 20 ppm (Pythium ultimum) | inhibition of growth at 200 ppm (Septoria tritici) | inhibition of growth at 200 ppm (Fusarium culmorum)

C#Cc1cnc2c(Cl)cc(OC(SC)C(=O)NC(C)(C)C=NOC)cc2c1 (stereo not drawn) [Compound No. 115, 2-(8-Chloro-3-ethynyl-quinolin-6-yloxy)-N-(2-methoxyimino-1,1-dimethyl-ethyl)-2-methylsulfanyl-acetamide]
≥ 60%: pest or weed control at 200 ppm [1] | pest or weed control at 200 ppm (Plasmopara viticola) | inhibition of growth at 20 ppm (Pythium ultimum) | pest or weed control at 200 ppm (Phytophthora infestans) | pest or weed control at 200 ppm (Septoria nodorum) | inhibition of growth at 200 ppm (Fusarium culmorum)

CSC(Oc1cc(C)c2ncc(Br)cc2c1)C(=O)NC(C)(C)C=NOc1ccccc1 (stereo not drawn) [Compound No. 23, 2-(3-Bromo-8-methyl-quinolin-6-yloxy)-N-(1,1-dimethyl-2-phenoxyimino-ethyl)-2-methylsulfanyl-acetamide]
≥ 60%: pest or weed control at 200 ppm [1] | pest or weed control at 200 ppm (Plasmopara viticola) | inhibition of growth at 20 ppm (Pythium ultimum) | pest or weed control at 200 ppm (Phytophthora infestans) | pest or weed control at 200 ppm (Septoria nodorum) | inhibition of growth at 200 ppm (Fusarium culmorum)

CON=CCC(C)NC(=O)C(Oc1ccc2ncc(I)cc2c1)SC (stereo not drawn) [Compound No. 48, 2-(3-Iodo-quinolin-6-yloxy)-N-(3-methoxyimino-1-methyl-propyl)-2-methylsulfanyl-acetamide]
≥ 60%: pest or weed control at 200 ppm [1] | inhibition of growth at 200 ppm (Septoria tritici) | pest or weed control at 200 ppm (Septoria nodorum) | inhibition of growth at 200 ppm (Fusarium culmorum)
